Structures are written as SMILES.

One may read the melting point as the temperature, or range, at which the solid turns liquid. Regarding `CO/C=C(/C(=O)OC)c1ccccc1CO/N=C(C)/C(=N/OC)c1ccc(OCc2cccc(C(F)(F)F)c2)cc1`, the melting point lay in the range of 102 to 103 °C.
As to `C#CCO/N=C(/C(C)=NOCc1ccccc1C(=COC)C(=O)OC)c1ccc(F)cc1`, the melting point lay within 91 to 93 °C.
`CCO/N=C(/C(C)=NOCc1ccccc1C(=NOC)C(=O)OC)c1ccc(Oc2ccc(Cl)cc2)cc1` gave a melting point of 90 to 93 °C.

Values taken from patent US6646151B1 (dated 2003).
